Legend:
[1] = molecular target: Tyrosine-protein kinase JAK2 (Homo sapiens, UniProt O60674); experiment: Selectivity interaction (KinomeScan (DiscoverX)) EUB0000138c JAK2; details: at 100 nM
[2] = molecular target: T1, Cyclin-G-associated kinase (Homo sapiens) (UniProt O14976); experiment: Selectivity interaction (KinomeScan (DiscoverX)) EUB0000698a GAK; details: at 10 µM
T1 sequence (whole entry): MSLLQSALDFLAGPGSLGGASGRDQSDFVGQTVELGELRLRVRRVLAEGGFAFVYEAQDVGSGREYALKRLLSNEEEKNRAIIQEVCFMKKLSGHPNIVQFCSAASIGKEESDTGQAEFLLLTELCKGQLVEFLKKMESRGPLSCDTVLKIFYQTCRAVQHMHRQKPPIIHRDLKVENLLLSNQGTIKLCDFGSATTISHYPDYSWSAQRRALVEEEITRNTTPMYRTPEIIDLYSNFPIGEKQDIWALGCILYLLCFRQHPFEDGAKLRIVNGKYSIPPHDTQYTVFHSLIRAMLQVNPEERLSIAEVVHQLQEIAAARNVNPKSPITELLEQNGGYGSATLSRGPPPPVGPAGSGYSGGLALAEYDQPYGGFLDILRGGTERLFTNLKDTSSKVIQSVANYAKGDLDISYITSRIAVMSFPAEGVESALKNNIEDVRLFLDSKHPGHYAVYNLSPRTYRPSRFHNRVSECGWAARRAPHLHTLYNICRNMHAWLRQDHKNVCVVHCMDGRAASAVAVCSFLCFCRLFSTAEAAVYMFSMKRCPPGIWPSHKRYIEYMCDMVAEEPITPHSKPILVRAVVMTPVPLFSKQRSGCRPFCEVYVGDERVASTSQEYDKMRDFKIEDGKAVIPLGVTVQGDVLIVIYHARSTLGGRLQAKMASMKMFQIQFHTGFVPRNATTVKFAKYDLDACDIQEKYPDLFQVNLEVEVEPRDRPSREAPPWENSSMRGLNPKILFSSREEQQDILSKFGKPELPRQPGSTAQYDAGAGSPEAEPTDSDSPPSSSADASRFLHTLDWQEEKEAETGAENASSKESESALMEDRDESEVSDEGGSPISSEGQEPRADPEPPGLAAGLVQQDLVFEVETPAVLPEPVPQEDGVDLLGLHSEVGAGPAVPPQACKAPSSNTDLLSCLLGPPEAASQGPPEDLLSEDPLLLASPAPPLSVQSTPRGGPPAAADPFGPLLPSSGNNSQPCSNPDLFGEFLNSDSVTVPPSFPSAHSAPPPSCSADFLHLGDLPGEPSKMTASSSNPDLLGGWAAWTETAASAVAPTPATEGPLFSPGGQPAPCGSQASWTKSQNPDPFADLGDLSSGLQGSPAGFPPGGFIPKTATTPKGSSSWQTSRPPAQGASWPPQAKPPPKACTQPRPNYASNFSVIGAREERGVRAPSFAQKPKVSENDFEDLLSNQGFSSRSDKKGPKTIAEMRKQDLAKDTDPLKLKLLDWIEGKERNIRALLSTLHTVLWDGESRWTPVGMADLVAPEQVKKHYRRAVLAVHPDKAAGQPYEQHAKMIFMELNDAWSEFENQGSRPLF

[3] = molecular target: Serine/threonine-protein kinase PLK2 (Homo sapiens) (UniProt Q9NYY3); experiment: Selectivity interaction (KinomeScan (DiscoverX)) EUB0000698a PLK2; details: at 10 µM
Serine/threonine-protein kinase PLK2 (Homo sapiens), sequence (Q9NYY3 whole entry, looked up): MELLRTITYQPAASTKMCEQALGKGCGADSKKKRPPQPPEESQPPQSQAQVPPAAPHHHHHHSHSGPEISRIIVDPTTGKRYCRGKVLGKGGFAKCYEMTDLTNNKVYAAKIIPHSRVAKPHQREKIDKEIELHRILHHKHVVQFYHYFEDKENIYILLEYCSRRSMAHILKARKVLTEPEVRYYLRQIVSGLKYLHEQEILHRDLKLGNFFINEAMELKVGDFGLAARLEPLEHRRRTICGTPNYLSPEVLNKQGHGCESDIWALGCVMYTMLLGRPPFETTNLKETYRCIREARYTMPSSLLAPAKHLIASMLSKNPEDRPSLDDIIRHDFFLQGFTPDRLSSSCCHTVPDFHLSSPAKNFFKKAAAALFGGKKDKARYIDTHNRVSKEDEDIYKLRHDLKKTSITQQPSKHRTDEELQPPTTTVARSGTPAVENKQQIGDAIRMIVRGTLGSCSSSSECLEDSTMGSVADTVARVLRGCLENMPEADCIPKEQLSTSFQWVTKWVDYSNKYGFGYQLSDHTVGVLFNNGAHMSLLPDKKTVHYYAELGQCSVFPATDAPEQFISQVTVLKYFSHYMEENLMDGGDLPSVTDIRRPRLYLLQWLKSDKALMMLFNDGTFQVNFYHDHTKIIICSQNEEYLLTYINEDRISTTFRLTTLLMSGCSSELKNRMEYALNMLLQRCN

[4] = molecular target: Serine/threonine-protein kinase PLK1 (Homo sapiens, UniProt P53350); experiment: Selectivity interaction (KinomeScan (DiscoverX)) EUB0000702a PLK1; details: at 1 µM
Serine/threonine-protein kinase PLK1, sequence (P53350 whole entry): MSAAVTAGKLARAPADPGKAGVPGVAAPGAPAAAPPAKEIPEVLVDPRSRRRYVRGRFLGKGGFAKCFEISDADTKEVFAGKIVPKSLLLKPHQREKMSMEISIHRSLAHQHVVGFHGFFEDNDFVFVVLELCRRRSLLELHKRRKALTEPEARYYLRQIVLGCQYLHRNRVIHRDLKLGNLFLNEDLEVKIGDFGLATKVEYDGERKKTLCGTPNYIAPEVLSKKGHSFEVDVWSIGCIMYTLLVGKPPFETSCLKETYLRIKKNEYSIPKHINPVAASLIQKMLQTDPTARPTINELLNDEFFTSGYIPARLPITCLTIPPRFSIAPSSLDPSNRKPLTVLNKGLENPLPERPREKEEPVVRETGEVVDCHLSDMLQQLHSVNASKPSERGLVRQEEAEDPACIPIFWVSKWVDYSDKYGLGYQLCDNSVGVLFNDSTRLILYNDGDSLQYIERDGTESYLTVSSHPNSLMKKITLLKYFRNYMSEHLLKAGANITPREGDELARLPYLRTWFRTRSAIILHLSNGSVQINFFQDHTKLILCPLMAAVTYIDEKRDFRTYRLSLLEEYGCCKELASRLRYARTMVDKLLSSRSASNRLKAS

[5] = molecular target: T2, Serine/threonine-protein kinase TAO3 (Homo sapiens) (UniProt Q9H2K8); experiment: Selectivity interaction (KinomeScan (DiscoverX)) EUB0000305b TAOK3; details: CellTiter-Glo assay (Promega, proliferation in ACHN cells): IC50 = […] nM, https://www.sgc-ffm.uni-frankfurt.de/#!specificprobeove, at 100 nM
T2 sequence (whole entry): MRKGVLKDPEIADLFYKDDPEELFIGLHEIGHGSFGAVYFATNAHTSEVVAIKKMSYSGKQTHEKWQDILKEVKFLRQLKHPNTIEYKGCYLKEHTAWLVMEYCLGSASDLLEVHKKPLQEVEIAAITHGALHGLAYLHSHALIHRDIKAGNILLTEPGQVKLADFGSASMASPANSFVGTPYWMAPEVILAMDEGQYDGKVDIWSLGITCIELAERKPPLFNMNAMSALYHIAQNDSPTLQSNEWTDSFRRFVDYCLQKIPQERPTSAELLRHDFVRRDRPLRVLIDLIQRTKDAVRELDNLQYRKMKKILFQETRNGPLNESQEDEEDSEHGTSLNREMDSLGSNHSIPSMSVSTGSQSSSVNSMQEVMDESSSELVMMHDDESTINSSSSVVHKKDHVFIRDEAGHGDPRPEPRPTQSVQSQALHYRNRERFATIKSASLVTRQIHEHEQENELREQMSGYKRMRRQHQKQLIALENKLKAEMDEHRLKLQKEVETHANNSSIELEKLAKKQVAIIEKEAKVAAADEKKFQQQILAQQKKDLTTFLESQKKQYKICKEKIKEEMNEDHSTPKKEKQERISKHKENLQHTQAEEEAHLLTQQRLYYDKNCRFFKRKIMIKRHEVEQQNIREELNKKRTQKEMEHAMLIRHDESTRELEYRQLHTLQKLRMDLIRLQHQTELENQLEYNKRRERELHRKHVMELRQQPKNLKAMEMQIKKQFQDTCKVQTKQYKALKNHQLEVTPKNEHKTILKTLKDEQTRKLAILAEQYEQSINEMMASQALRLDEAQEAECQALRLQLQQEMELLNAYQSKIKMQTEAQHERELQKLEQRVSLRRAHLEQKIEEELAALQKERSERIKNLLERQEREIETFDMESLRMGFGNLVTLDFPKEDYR

[6] = molecular target: T3, Dual specificity mitogen-activated protein kinase kinase 5 (Homo sapiens) (UniProt Q13163); experiment: Selectivity interaction (KinomeScan (DiscoverX)) EUB0000305b MAP2K5; details: CellTiter-Glo assay (Promega, proliferation in ACHN cells): IC50 = […] nM, https://www.sgc-ffm.uni-frankfurt.de/#!specificprobeove, at 100 nM
T3 sequence (whole entry): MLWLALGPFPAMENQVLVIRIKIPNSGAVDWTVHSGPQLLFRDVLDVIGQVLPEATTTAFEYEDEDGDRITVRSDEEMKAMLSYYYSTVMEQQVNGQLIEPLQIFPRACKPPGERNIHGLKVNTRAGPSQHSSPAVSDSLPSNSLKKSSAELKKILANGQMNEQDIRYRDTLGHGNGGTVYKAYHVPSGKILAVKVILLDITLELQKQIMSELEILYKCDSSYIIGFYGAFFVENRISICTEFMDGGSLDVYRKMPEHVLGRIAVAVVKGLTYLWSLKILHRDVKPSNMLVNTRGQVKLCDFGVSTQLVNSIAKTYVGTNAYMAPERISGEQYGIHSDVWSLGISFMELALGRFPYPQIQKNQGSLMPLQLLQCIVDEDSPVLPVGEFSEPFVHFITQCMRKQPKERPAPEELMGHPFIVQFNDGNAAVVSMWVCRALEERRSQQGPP

[7] = molecular target: Glycogen synthase kinase-3 beta (Homo sapiens, UniProt P49841); experiment: Selectivity interaction (Kinase panel (University of Dundee)) EUB0000169b GSK3B; details: at 10 µM
Glycogen synthase kinase-3 beta, sequence (P49841 whole entry, looked up): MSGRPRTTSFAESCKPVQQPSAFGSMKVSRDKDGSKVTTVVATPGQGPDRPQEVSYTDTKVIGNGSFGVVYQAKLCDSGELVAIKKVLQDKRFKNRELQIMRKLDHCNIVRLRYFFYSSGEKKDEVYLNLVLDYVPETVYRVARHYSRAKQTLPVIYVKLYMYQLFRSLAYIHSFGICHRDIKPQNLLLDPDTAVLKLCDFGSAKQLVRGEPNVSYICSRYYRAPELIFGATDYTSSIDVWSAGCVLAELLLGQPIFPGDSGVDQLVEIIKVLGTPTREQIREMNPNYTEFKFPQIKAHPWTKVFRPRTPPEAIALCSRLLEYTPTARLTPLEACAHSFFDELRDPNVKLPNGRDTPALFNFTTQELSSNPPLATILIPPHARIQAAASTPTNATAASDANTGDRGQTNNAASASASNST

Tyrosine-protein kinase JAK2, sequence (O60674 whole entry): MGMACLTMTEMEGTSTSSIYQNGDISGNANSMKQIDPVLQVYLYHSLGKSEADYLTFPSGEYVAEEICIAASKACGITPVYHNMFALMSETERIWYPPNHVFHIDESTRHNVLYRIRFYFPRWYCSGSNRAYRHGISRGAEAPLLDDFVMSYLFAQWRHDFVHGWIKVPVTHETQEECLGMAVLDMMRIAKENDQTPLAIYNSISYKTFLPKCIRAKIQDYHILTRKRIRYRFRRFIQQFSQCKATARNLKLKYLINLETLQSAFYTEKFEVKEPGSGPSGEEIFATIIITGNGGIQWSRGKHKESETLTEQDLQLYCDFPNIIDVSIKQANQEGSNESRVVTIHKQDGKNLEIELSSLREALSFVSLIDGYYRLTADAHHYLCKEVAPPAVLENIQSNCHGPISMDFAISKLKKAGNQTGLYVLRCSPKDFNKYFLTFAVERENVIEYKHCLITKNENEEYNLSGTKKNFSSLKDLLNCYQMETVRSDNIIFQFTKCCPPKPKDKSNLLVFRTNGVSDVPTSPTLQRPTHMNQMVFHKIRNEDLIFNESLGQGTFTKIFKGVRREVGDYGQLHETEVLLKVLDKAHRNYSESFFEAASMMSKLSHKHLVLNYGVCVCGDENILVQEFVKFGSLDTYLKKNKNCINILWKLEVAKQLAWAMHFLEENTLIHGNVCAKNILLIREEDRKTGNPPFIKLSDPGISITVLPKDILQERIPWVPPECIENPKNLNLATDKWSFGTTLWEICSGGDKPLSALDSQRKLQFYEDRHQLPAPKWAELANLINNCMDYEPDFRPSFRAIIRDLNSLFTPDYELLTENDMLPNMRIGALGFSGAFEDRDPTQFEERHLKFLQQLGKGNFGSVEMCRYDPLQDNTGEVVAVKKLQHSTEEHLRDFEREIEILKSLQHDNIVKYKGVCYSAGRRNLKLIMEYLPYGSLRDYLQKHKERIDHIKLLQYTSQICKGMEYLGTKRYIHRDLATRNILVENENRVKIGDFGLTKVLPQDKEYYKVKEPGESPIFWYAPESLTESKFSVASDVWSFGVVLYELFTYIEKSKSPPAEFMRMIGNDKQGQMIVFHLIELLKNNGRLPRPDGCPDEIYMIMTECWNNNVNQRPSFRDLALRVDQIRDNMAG

A % of control [1] of 4.8% was found for `CNC(=O)c1ccc(Nc2ncc(C(F)(F)F)c(NCc3nccnc3N(C)S(C)(=O)=O)n2)cc1` [DEFACTINIB] in this work.
A % of control [2] of 4.1% and a % of control [3] of 0.2% were found for `COc1cc2ncn(-c3cc(OCc4ccccc4C(F)(F)F)c(C(N)=O)s3)c2cc1OC` [GW843682X] in this work.
A % of control [4] of 7.6% was found for `CN(c1ccnc(CNc2nc(Nc3ccc4c(c3)CC(=O)N4)ncc2C(F)(F)F)n1)S(C)(=O)=O` [PF-00911705] in this work.
A % of control [5] of 41% and a % of control [6] of 8.5% were found for `C[C@H](c1ccnc(Nc2nc3ccc(-c4cc(N(C)C)ncn4)cc3[nH]2)c1)N1CCN(C(=O)CC(F)(F)F)CC1` [BAY-985] in this work.
A % of control [7] of 69% was found for `CC[C@@H]1C(=O)N(C)c2cnc(Nc3ccc(C(=O)NC4CCN(C)CC4)cc3OC)nc2N1C1CCCC1` in this work.

From ChEMBL document CHEMBL5212743, “Selectivity Literature for EUbOPEN Chemogenomics Library wave 3” (2023)
